The source of these data is patent US10921324B2, “Compositions and methods related to the methylation of histone H1.0 protein” (Aelan Cell Technologies, Inc., priority 2016, dated 2021).

The test system of this experiment is G9A methyltransferase. The experiment in a line: In vitro methylation of unmodified H1.0 peptide with G9A, products by LC-MS. Type of experiment: biochemical. The protocol: In order to identify the precise sites of methylation by G9A and GLP methyltransferases on histone H1.0, in vitro methylation assays were performed and subsequently analyzed by Liquid Chromatography and High-resolution Mass Spectrometry (LC-MS) analysis. Methylation reactions were set up using either G9A methyltransferase (NEB, M0235S, Lot #0031201) or GLP methyltransferase (Cayman Chemical, 10755). The methyl donor in each reaction was unlabeled S-Adenosyl-L-Methionine (NEB, B9003S). The H1.0 substrate in each reaction was either unmodified H1.0 peptide labeled with biotin (ThermoFisher Scientific, Biotin-[…] (SEQ ID NO:69)), di-methylated H1.0 peptide (ThermoFisher Scientific, Biotin-[…]^(me2)PK (SEQ ID NO:70)), or full-length recombinant human H1.0 (NEB, M2501S). […]
Sequence of G9A methyltransferase (Q9Z148 969-1263 limits assumed): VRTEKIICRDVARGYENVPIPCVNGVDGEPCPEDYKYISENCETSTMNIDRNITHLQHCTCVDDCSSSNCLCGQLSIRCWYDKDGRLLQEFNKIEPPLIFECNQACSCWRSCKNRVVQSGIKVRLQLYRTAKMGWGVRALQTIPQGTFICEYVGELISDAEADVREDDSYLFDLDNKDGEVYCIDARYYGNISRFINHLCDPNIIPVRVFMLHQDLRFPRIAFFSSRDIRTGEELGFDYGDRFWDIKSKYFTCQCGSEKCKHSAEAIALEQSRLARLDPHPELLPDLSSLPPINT
For the Liquid Chromatography and High-resolution Mass Spectrometry (LC-MS) analysis, samples were prepared as described above and about 1 μg o the product was injected onto a Thermo Scientific Easy nLC system configured with a 10 cm×100 um trap column and a 25 cm×100 um ID resolving column. […] This ensured optimal full-scan data for quantification. […]
Protein identification was performed using Thermo Scientific Proteome Discoverer version 1.4 (including Sequest and Percolator algorithms) using RefSeqHuman sequence database. […] Protein quantification was performed using Pinpoint version 1.4 software. The Pinpoint quantification workflow included importing the Proteome Discoverer .msf files as spectral libraries. Identified peptides were subsequently quantified in MS .raw files using the Pinpoint peak finding, chromatographic alignment and area calculation algorithms.
In order to identify the precise locations of G9A methylation on unmodified H1.0 peptide ([…] (SEQ ID NO:36)), a methylation reaction was set up and the products identified by LC-MS. […] The methylation reaction was subsequently analyzed by LC-MS, and each spectral peak (corresponding to a peptide species in the final reaction) was identified and quantified using spectral counts. […]

Ends that are not written are not given here.

For “AKPVKASKPKKAKPVKPK (not fully specified (N-terminus); listed as Homo sapiens) [unmethylated H1.0 peptide, unmodified H1.0 peptide substrate for in vitro methylation]”, the “sites of methylation by G9A on the peptide” value (LC-MS) is given as “dimethylates lysine K180 but not other lysines (K166, K174, K175 or K177)”. Also, the “H1.0K180 dimethylated, % of all peptides” value (LC-MS spectral counts, 10U G9A, 3.2 mM S-Adenosyl-L-Methionine, 37° C. 1 hour) is recorded as 99.9%. Where the note is “dimethylation of K180 by G9A”, the estimated methylation efficiency entry is recorded as “about 99%”.
